Patent US20240270703A1, “HERBICIDAL COMPOUNDS” (SYNGENTA CROP PROTECTION AG, priority 2021, published 2024)

How the values were obtained:
Type in all cases: in vivo
Zea mays (ZEAMX) [1] = assay: Herbicidal glasshouse test, PRE application (crop damage); settings: 130 g/ha; evaluated after 14 days; 100=total damage to plant, 0=no damage to plant; maize crop
Protocol: (§1) Seeds of a variety of test species are sown in standard soil in pots (Lolium perenne (LOLPE), Amaranthus retroflexus (AMARE), Abutilon theophrasti (ABUTH), Setaria faberi (SETFA), Echinochloa crus-galli (ECHCG), Zea mays (ZEAMX)). After cultivation for one day under controlled conditions in a glasshouse (at 24/16° C., day/night; 14 hours light; 65% humidity), the plants were sprayed with an aqueous spray solution derived from the formulation of the technical active ingredient in 0.6 ml acetone and 45 ml formulation solution containing 10.6% Emulsogen EL (Registry number 61791-12-6), 42.2% N-methyl pyrrolidone, 42.2% dipropylene glycol monomethyl ether (CAS RN 34590-94-8) and 0.2% X-77 (CAS RN 11097-66-8).
(§2) The test plants were then grown in a glasshouse under controlled conditions in a glasshouse (at 24/16° C., day/night; 14 hours light; 65% humidity) and watered twice daily. After 14 days, the test was evaluated (100=total damage to plant; 0=no damage to plant, NC=data not captured). The compounds were applied at 130 g/ha unless otherwise stated.

[2] = test system: Amaranthus retroflexus (AMARE); assay: Herbicidal glasshouse test, POST application; settings: 130 g/ha; evaluated after 14 days; 100=total damage to plant, 0=no damage to plant
[3] = test system: Echinochloa crus-galli (ECHCG); assay: Herbicidal glasshouse test, PRE application; settings: 130 g/ha; evaluated after 14 days; 100=total damage to plant, 0=no damage to plant
Protocol: as §1, §2

Setaria faberi (SETFA) [4] = assay: Herbicidal glasshouse test, PRE application; settings: 130 g/ha; evaluated after 14 days; 100=total damage to plant, 0=no damage to plant
Protocol: as §1, §2

[5] = test system: Amaranthus retroflexus (AMARE); assay: Herbicidal glasshouse test, PRE application; settings: 130 g/ha; evaluated after 14 days; 100=total damage to plant, 0=no damage to plant
Protocol: as §1, §2

[6] = test system: Abutilon theophrasti (ABUTH); assay: Herbicidal glasshouse test, PRE application; settings: 130 g/ha; evaluated after 14 days; 100=total damage to plant, 0=no damage to plant
Protocol: as §1, §2

Zea mays (ZEAMX) [7] = assay: Herbicidal glasshouse test, POST application (crop damage); settings: 130 g/ha; evaluated after 14 days; 100=total damage to plant, 0=no damage to plant; maize crop
[8] = test system: Abutilon theophrasti (ABUTH); assay: Herbicidal glasshouse test, POST application; settings: 130 g/ha; evaluated after 14 days; 100=total damage to plant, 0=no damage to plant
[9] = test system: Echinochloa crus-galli (ECHCG); assay: Herbicidal glasshouse test, POST application; settings: 130 g/ha; evaluated after 14 days; 100=total damage to plant, 0=no damage to plant
Setaria faberi (SETFA) [10] = assay: Herbicidal glasshouse test, POST application; settings: 130 g/ha; evaluated after 14 days; 100=total damage to plant, 0=no damage to plant

Row | SMILES | damage to plant, ZEAMX, PRE Application (Zea mays (ZEAMX) [1]) | damage to plant, AMARE, POST Application [2] | damage to plant, ECHCG, PRE Application [3] | damage to plant, SETFA, PRE Application (Setaria faberi (SETFA) [4]) | damage to plant, AMARE, PRE Application [5] | damage to plant, ABUTH, PRE Application [6] | damage to plant, ZEAMX, POST Application (Zea mays (ZEAMX) [7]) | damage to plant, ABUTH, POST Application [8] | damage to plant, ECHCG, POST Application [9] | damage to plant, SETFA, POST Application (Setaria faberi (SETFA) [10])
1 | Cn1nnnc1NC(=O)c1ccc(OC(F)(F)F)c(S(=O)(=O)NCC2CC2)c1Cl [Compound 1.001] | 0 | 100 | 20 | 0 | 100 | 100 | 0 | 80 | 60 | 20
2 | CCNS(=O)(=O)c1c(OC(F)(F)F)ccc(C(=O)Nc2nnnn2C)c1Cl [Compound 1.002, 2-chloro-3-(ethylsulfamoyl)-N-(1-methyltetrazol-5-yl)-4-(trifluoromethoxy)benzamide] | 0 | 100 | 10 | 0 | 100 | 80 | 0 | 90 | 90 | 70
3 | CN(C)S(=O)(=O)c1c(OC(F)(F)F)ccc(C(=O)Nc2nnnn2C)c1Cl [Compound 1.003] | 0 | 100 | 70 | 0 | 90 | 90 | 0 | 100 | 100 | 100
4 | CNS(=O)(=O)c1c(OC(F)(F)F)ccc(C(=O)Nc2nnnn2C)c1Cl [Compound 1.004] | 0 | 80 | 90 | 90 | 100 | 100 | 10 | 80 | 80 | 80
5 | CN(C)S(=O)(=O)c1c(OC(F)F)ccc(C(=O)Nc2nnnn2C)c1Cl [Compound 1.009] | 10 | 100 | 100 | 100 | 100 |  | 10 |  | 90 | 90
6 | CCN(C)S(=O)(=O)c1c(OC(F)F)ccc(C(=O)Nc2nnnn2C)c1Cl [Compound 1.010] | 10 | 100 | 100 | 100 | 100 |  | 10 |  | 100 | 90
